{"source": "patent US6569229B1", "about": "“Low-freezing point formulation containing phenol derivatives” (Omya AG, priority 1998, dated 2003)", "key": {"[1]": {"experiment": "Brookfield viscosity of the preserved pigment slurry", "format": "physicochemical", "description": "Measurement of the viscosity was performed on a Brookfield viscosimeter type PVF-100 at 100 rpm. The following spindles were used for the individual measurements:\nThe measurement was carried out in a low 400 ml beaker.\nThe temperature during the measurement was 20° C. The measurement was performed after 1 min of stirring.\nPrior to the actual measurements, all samples were stirred intensively for 2 min (5000 rpm, stirring disc diameter 50 mm).\nThis type of viscosity measurement was used in all of the following examples."}, "[2]": {"experiment": "Solubility / miscibility in water and attainable concentration", "format": "physicochemical", "conditions": "NaOH as neutralizing agent, room temperature; higher concentrations impossible or recrystallized during storage"}, "[3]": {"conditions": "cited from earlier work"}, "aerobic mesophilic germs": {"test_system": "aerobic mesophilic germs", "experiment": "Germ count (determination of aerobic mesophilic germs) in preserved slurry or coolant", "format": "cell-based, pseudomonads (predominantly Pesudomonas aeruginosa)", "description": "The germ count was determined according to the method “Determination of aerobic mesophilic germs”, Schweizerisches Lebensmittelbuch, chapter 56, paragraph 7.01, 1985 edition, revised version 1988. Mostly, the bacterial strains detected were from the family of pseudomonads (predominantly Pesudomonas aeruginosa)."}, "[4]": {"experiment": "pH of the preserved slurry or coolant", "format": "physicochemical"}}}
{"smiles": "Oc1ccccc1-c1ccccc1", "note": "[o-phenylphenol]", "values": [{"measurement": "Brookfield viscosity spindle 3, 100 rpm after preparation", "setting": "[1]; calcium carbonate slurry 77.8% solids, 250 g actives/t, added according to example 8, 47.5% solution (Example 11), blank 340", "value": 350, "unit": "mPas"}, {"measurement": "Brookfield viscosity spindle 3, 100 rpm after 1 week", "setting": "[1]; calcium carbonate slurry 77.8% solids, 250 g actives/t, added according to example 8, 47.5% solution (Example 11), blank 350", "value": 380, "unit": "mPas"}, {"measurement": "Brookfield viscosity spindle 3, 100 rpm after preparation", "setting": "[1]; calcium carbonate slurry 77.8% solids, 250 g actives/t, added as solution of example 2 (Example 4), blank 340", "value": 320, "unit": "mPas"}, {"measurement": "Brookfield viscosity spindle 3, 100 rpm after 1 week", "setting": "[1]; calcium carbonate slurry 77.8% solids, 250 g actives/t, added as solution of example 2 (Example 4), blank 350", "value": 460, "unit": "mPas"}, {"measurement": "Brookfield viscosity spindle 3, 100 rpm after preparation", "setting": "[1]; kaolin slurry 72.8% solids, 300 g actives/t, added as solution of example 1 (Example 3), blank 240", "value": 310, "unit": "mPas"}, {"measurement": "Brookfield viscosity spindle 3, 100 rpm after 1 week", "setting": "[1]; kaolin slurry 72.8% solids, 300 g actives/t, added as solution of example 1 (Example 3), blank 330", "value": 760, "unit": "mPas"}, {"measurement": "Brookfield viscosity spindle 3, 100 rpm after preparation", "setting": "[1]; kaolin slurry 72.8% solids, 300 g actives/t, added as solution of example 7 (Example 10), blank 240", "value": 250, "unit": "mPas"}, {"measurement": "Brookfield viscosity spindle 3, 100 rpm after 1 week", "setting": "[1]; kaolin slurry 72.8% solids, 300 g actives/t, added as solution of example 7 (Example 10), blank 330", "value": 350, "unit": "mPas"}, {"measurement": "Brookfield viscosity spindle 3, 100 rpm after preparation", "setting": "[1]; talc slurry 64.2% solids, 350 g actives/t, added as 30% solution of example 9 (Example 12), blank 320", "value": 320, "unit": "mPas"}, {"measurement": "Brookfield viscosity spindle 3, 100 rpm after 1 week", "setting": "[1]; talc slurry 64.2% solids, 350 g actives/t, added as 30% solution of example 9 (Example 12), blank 480", "value": 540, "unit": "mPas"}, {"measurement": "attainable concentration of o-phenylphenol solution", "setting": "[2]", "value": "≤ 20", "unit": "% by wt."}, {"measurement": "solubility in water", "setting": "[3]", "value": "almost insoluble in water"}, {"measurement": "water miscibility", "setting": "[3]; o-phenylphenol in monopropylene glycol", "value": "not water miscible"}, {"measurement": "germ count after 24 hrs", "setting": "aerobic mesophilic germs; 5% oil in water coolant emulsion, 2 kg actives/t, added as 50% solution (Example 13), blank 10^7/g", "value": "< 100", "unit": "g⁻¹"}, {"measurement": "germ count after 24 hrs", "setting": "aerobic mesophilic germs; calcium carbonate slurry, 250 g actives/t, added according to example 8, 47.5% solution (Example 11), blank 10^6/g", "value": "< 100", "unit": "g⁻¹"}, {"measurement": "germ count after 24 hrs", "setting": "aerobic mesophilic germs; calcium carbonate slurry, 250 g actives/t, added as solution of example 2 (Example 4), blank 10^5/g", "value": "< 100", "unit": "g⁻¹"}, {"measurement": "germ count after 24 hrs", "setting": "aerobic mesophilic germs; kaolin slurry, 300 g actives/t, added as solution of example 1 (Example 3), blank 10^5/g", "value": "< 100", "unit": "g⁻¹"}, {"measurement": "germ count after 24 hrs", "setting": "aerobic mesophilic germs; kaolin slurry, 300 g actives/t, added as solution of example 7 (Example 10), blank 10^5/g", "value": "< 100", "unit": "g⁻¹"}, {"measurement": "germ count after 24 hrs", "setting": "aerobic mesophilic germs; talc slurry, 350 g actives/t, added as 30% solution of example 9 (Example 12), blank 10^5/g", "value": "< 100", "unit": "g⁻¹"}, {"measurement": "pH of coolant", "setting": "[4]; 5% oil in water coolant emulsion, 2 kg actives/t, added as 50% solution (Example 13), blank 6.9", "value": 7.0}, {"measurement": "pH of slurry", "setting": "[4]; calcium carbonate slurry 77.8% solids, 250 g actives/t, added according to example 8, 47.5% solution (Example 11), blank 9.6", "value": 9.5}, {"measurement": "pH of slurry", "setting": "[4]; calcium carbonate slurry 77.8% solids, 250 g actives/t, added as solution of example 2 (Example 4, prior art), blank 9.6", "value": 10.2}, {"measurement": "pH of slurry", "setting": "[4]; kaolin slurry 72.8% solids, 300 g actives/t, added as solution of example 1 (Example 3, prior art), blank 7.4", "value": 8.1}, {"measurement": "pH of slurry", "setting": "[4]; kaolin slurry 72.8% solids, 300 g actives/t, added as solution of example 7 (Example 10), blank 7.4", "value": 7.4}, {"measurement": "pH of slurry", "setting": "[4]; talc slurry 64.2% solids, 350 g actives/t, added as 30% solution of example 9 (Example 12), blank 10.1", "value": 10.2}]}
